Test results taken from US20240325330A1, “NEW METHOD TO TREAT ACIDOSIS RELATED DISEASES WITH ACETOACETATE” (INSTITUT NATIONAL DE LA SANTÉ ET DE LA RECHERCHE MÉDICALE, priority 2021, published 2024).

What was measured:
[1] = system: human monocytes exposed to lactic acid; assay: Intracellular pH (SNARF probe, flow cytometry); type: cell-based; conditions: 10 mM lactic acid with 5 mM AcAc; FIG. 2E
Protocol: Peripheral blood mononuclear cells (PBMC) were obtained from healthy human volunteers (Blood collection center, Angers, France; agreement ANG-2017-01) by standard density-gradient centrifugation on lymphocyte separation medium (Eurobio, Courtaboeuf, France). CD14+ monocytes were then isolated by positive magnetic cell-sorting (Miltenyi Biotec, Bergisch Gladbach, Germany). […]
Intracellular pH (pHi) was measured by incubating 3×10^5 Mφ with 500 nM pH-sensitive dye carboxy-SNARF-AM (Life Technologies, Carlsbad, CA) in PBS/BSA at 37° C. for 20 min and then performing flow cytometry analysis. We determined pHi as the ratio of fluorescence intensities at two emission wavelengths (585/42 nm and 700/60 nm PMTs). SNARF fluorescence in macrophages was calibrated with a high-potassium buffer (39.6 mM NaCl, 120 mM KCl, 2.3 mM CaCl2), 1 mM MgCl2, 5 mM HEPES, 10 mM glucose) at pH values of 6.5 to 8, in the presence of 10 μM nigericin (Sigma-Aldrich); nigericin exchanges external potassium with internal protons to equilibrate extracellular and intracellular pH.

[2] = system: human monocytes differentiated into macrophages under lactic acidosis (LA-Mφ); assay: Oxygen consumption rate (XF96 extracellular flux analyzer); type: cell-based; conditions: LA-Mφ+AcAc compared to LA-Mφ
Protocol: Peripheral blood mononuclear cells (PBMC) were obtained from healthy human volunteers (Blood collection center, Angers, France; agreement ANG-2017-01) by standard density-gradient centrifugation on lymphocyte separation medium (Eurobio, Courtaboeuf, France). CD14+ monocytes were then isolated by positive magnetic cell-sorting (Miltenyi Biotec, Bergisch Gladbach, Germany). Monocytes (1×10^6 cells/mL) were cultured in complete medium (CM) consisting of RPMI 1640 (Lonza, Verviers, Belgium) supplemented with 10% fetal calf serum (FCS) (Eurobio), 2 mM L-glutamine, 1 mM sodium pyruvate, 0.1 mM non-essential amino acids, 10 mM HEPES, 100 U/mL penicillin and 100 μg/mL streptomycin (all from Lonza) in the presence of 50 ng/mL GM-CSF (R&D Systems, Minneapolis, MN). […]
We used an XF96 extracellular flux analyzer (Agilent Technologies, Santa Clara, CA) to determine the bioenergetic profile of cells. […] Oxygen consumption rate (OCR) was recorded, to assess mitochondrial respiratory activity and glycolytic activity. OCR was recorded in basal conditions, and the cells were then treated sequentially with 2 μg/mL oligomycin, and 3 μM carbonyl cyanide p-(trifluoromethoxy) phenylhydrazone (FCCP) (both from Sigma-Aldrich). […]

[3] = system: PBMC from septic shock patients; assay: Mitochondrial depolarization in cultured PBMC from sepsis patients; type: cell-based, human; conditions: 24 h, medium with 5 mM AcAc, FIG. 4B
Protocol: Mitochondrial membrane potential was assessed by incubating with 10 nM MitoTracker Green and 5 nM MitoTracker DeepRed (Thermo Fisher Scientific, Waltham, MA) in PBS containing 1% (w/v) BSA in PBS (PBS/BSA) at 37° C. for 15 min. Cells were washed and incubated with 0.5 μg/mL DAPI to exclude dead cells. Flow cytometry data were acquired with a FACSCanto II flow cytometer (BD Biosciences, San Jose, CA) and analyzed with FlowJo software (Tree Star, Ashland, OR).
Peripheral blood mononuclear cells (PBMC) from septic patients and healthy subjects were purified by standard density-gradient centrifugation on lymphocyte separation medium (Eurobio, Courtaboeuf, France). PBMC were cultured for 24 h in a medium consisting of RPMI 1640 medium with L-glutamine and without glucose (Lonza, Verviers, Belgium) and supplemented with 6% FCS (Eurobio), 3% autologous plasma, 0.5 g/L glucose, 100 U/mL penicillin and 100 μg/mL streptomycin (all from Lonza) in the presence of 2 ng/mL GM-CSF (R&D Systems). In some experiments, the culture medium was supplemented with 5 mM AcAc or adjusted to 4 g/L glucose. After 24 h culture, the percentage of cells with depolarized mitochondria was assessed as described above. After 3 days of culture, intracellular ATP has been quantified as described above.

CC(=O)CC(=O)[O-].[Li+] [AcAc, lithium acetoacetate]
immediate short-term decrease in pHi induced by extracellular acidosis [1]: remained detectable | OCR consumption [2]: induced | percentage of cells with depolarized mitochondria [3]: significantly reduced
